# From US4902791A, “Nitrosourea derivatives, process for their preparation and medicaments containing them” (Sanofi S.A., priority 1983, dated 1990)
# How the values were obtained:
# [1] = system: colon carcinoma C38; assay: colon carcinoma C38, comparison of I.V. and I.P. routes, treatment days 8, 12, 16; assay type: in vivo, mouse; design: key to Median wt. of the tumor D20 / Median wt. of the tumor D27: median tumor weight in mg; details: I.P. Route, 20 mg/kg/inj.
# Method: With a view to verifying the antitumor activity of the product of the invention CI.1671 when it is administered by the I.V. route, another experiment was performed in which this product was administered by the I.P. route and the I.V. route for the purposes of comparison.
# This experiment is carried out under particularly difficult conditions, the first day of the treatment corresponding to the eighth day after the implantation of the carcinoma C38, whereas normally the treatment starts on the day of implantation of the tumor (D0) or 1 day after (D1) the implantation of the tumor.
# The median weight of the tumors on the first day of treatment (day 8) is about 12 mg (tumors varying from 8 to 40 mg). The animals are treated on days 8, 12 and 16 depending on the different routes indicated. […]
# [2] = system: melanoma B16; assay: activity toward melanoma B16 implanted subcutaneously, I.V. route; assay type: in vivo, mouse; details: 20 mg/kg/inj. days 3, 7, 11
# Method: The activity of the substances of the invention was also tested by administering the said substances of the invention by the I.V. route. 0.5 ml of an homogenate of the tumor (1 g/10 ml) is administered to B6C3F1 female mice by the subcutaneous (S.C. route) on day 0. The products of the invention and the substances used for comparison are administered on days 3, 7 and 11 in isotonic solution.
# In Table IIA below the results are presented relating to the activity of the substance CI. 1675 administered by the I.V. route on the growth of the melanoma B16 implanted subcutaneously, in comparison with carmustine BCNU marketed under the name of BiCNU®.
# In Table IIA below and in the subsequent tables, T represents the mean weight (or median) of the tumors in the treated mice, C represents the mean weight (or median) of the tumors in the control, untreated mice and the ratio T/C% corresponds to T/C×100.
# [3] = system: L 1210 IGR TUMOR; assay: "in vivo" activity on L1210 IGR tumor, 5 mg/kg i.p. days 1, 5, 9; design: species or system mouse
# Method: (§1) The experiments were identical to those described in preceding paragraph 4 but lower doses were used.
# The same protocol was carried out with the tumor L1210 IGR, by inoculating 10^5 tumor cells of L1210 IGR intraperitoneally in the volume of 0.2 ml then, at days 1, 5 and 9, there were injected intraperitoneally 5 mg/kg of each of the compounds to be tested.
# [4] = system: leucemia L 1210 IGR; assay: "in vivo" activity on leucemia L1210 IGR, 20 mg/kg i.p. days 1, 5, 9; design: species or system mouse; details: for percentage of cured mice: surviving more than 60 days
# Method: Female DBA2 mice were used, about 8 weeks old and weighing about 20 g from the IFFA-CREDO center (les Oncins, 69210 Arbresles)
# At day "0", each mouse received intraperitoneally an inoculum of […] in a volume of 0.2 ml.
# After tumoral graft, the mice were distributed at random into 21 cages of 5 animals, themselves then distributed, by drawing lots, into 6 experimental series. Within these 6 experimental series, there were constituted a control series of 6 cages and 5 experimental series of 3 cages each, and of which the mice were intended to be treated by the compounds of the invention.
# (§2) The protocol was identical for the 3 tumors and the 5 compounds of the invention to be tested.
# (§3) As regards the experimental series to be treated, each mouse received, at days 1, 5 and 9, intraperitoneally, a dose of 20 mg/kg of the compound to be tested, in the volume of 0.2 ml of neutralized and sterilized olive oil.
# (§4) As regards the control series, each mouse received, intraperitoneally, 0.2 ml of neutralized and sterilized olive oil.
# (§5) The results are expressed by the relative increase in survival (T/C×100) calculated from the average survival of the treated animals (T) and that of the control animals (C)
# (§6) The mice surviving more than 60 days were considered as cured.
# (§7) The figures between parentheses indicate the percentage of cured mice.
# [5] = system: melanoma B16; assay: "in vivo" activity on melanoma B16, 20 mg/kg i.p. days 1, 5, 9; design: species or system mouse; details: for percentage of cured mice: surviving more than 60 days
# Method: Female C57 B 1/6 mice were used, about 8 weeks old and weighing about 20 g, from the IFFA-CREDO center.
# At day "0", each mouse received intraperitoneally an inoculum of 2×10^6 tumor cells in a volume of 0.5 ml.
# After tumoral graft, distribution at random was carried out as indicated above, to obtain a control series of 8 cages and 5 experimental series of 4 cages each, and of which the mice were intended to be treated by the compounds of the invention.
# as §2, §3, §4, §5, §6, §7
# [6] = system: L 1210 USA Tumor; assay: "in vivo" activity on L1210 U.S.A. tumor, 5 mg/kg i.p. days 1, 5, 9; design: species or system mouse
# Method: The tumor L1210 U.S.A. is more resistant than tumor L1210 IGR.
# as §1
# There were inoculated into the mice, 10^5 tumor cells of L1210 U.S.A. intraperitoneally in a volume of 0.2 ml.
# At days 1, 5 and 9, the compounds of the invention under test were injected intraperitoneally, at a lower dose than that used in the experiment described at 4, that is to say in the proportion of 5 mg/kg.
# [7] = system: Tumor LEWIS 3LL; assay: "in vivo" activity on Lewis tumor, 20 mg/kg i.p. days 1, 5, 9; design: species or system mouse; details: for percentage of cured mice: surviving more than 60 days
# Method: Procedure was under the conditions which have just been described previously with regard to melanoma B16, by injecting the tumor cells, in the proportion of 2×10^6 per mouse, in the volume of 0.2 ml.
# as §2, §3, §4, §5, §6, §7
# [8] = system: L 1210 cells; assay: cytotoxic index after 1 h contact, potential "in vivo" activity (TEST N° 2); assay type: cell-based, mouse
# Method: The test used is that of W. J. Durkin et al. Cancer Research 1979, 39, 402-407, modified.
# All the nitrosoureas were dissolved in 70% ethanol in the proportion of 10 mg/ml.
# 2--Determination of the potential "in vivo" activity
# L 1210 cells, under conditions similar to the preceding protocol, were contacted for 1 hour with a dose of the various products tested corresponding to a cytotoxic index equal to 20%. After this time, the cells were placed in culture medium not containing nitrosoureas and incubated at 37° C. After 48 hours, the cytotoxic index was determined.
# [9] = toxicological results, single I.P. dose, DL0 and DL50; assay type: in vivo, mouse; details: mice
# Source text: DL0, DL50, single I.P. dose administered to the aforementioned strains of mice.
# [10] = system: L1210 U.S.A.; assay: antitumor activity on leukemia L1210 U.S.A., products of examples 33-39, I.P.; assay type: in vivo, mouse
# Method: The experiments were always carried out on female mice which were specific pathogen-free (S. P. F.),
# either of the line DBA/2JIco
# or of the line B6 D2 F1/JIco (first generation hybrids between the lines C57BL/6 and DBA/2).
# On the day of the graft (by convention day 0=D0) an inoculum of 1×10^5 tumor cells in a volume of 0.2 ml is administered to each mouse by the intraperitoneal route (I.P.).
# This inoculum is prepared by diluting ascites fluid taken from the peritoneum of a donor female mouse in NCTC 109 medium (Eurobio Laboratories, Paris, France), counting of the cells in a MALASSEZ cell under a microscope and adjustment of the concentration to 5×10^5cells […] by means of the same medium.
# The tumor line is an American strain of the line L1210.
# After the tumor graft, the mice are distributed at random in cages of 5 animals. Subsequently, these cages containing 5 mice are themselves distributed at random into a control group (control) and groups treated with the I.C. products.
# The doses of the products of the invention used in the different experiments are expressed in milligrams per kilogram of body weight.
# The products to be injected were dissolved in isotonic sodium chloride solution.
# 2 protocols for treatment were used in the different experiments:
# either a single injection on D1, by the intraperitoneal (I.P.) or intravenous (I.V.) route,
# or 3 I.P. injections on D1, D5, D9.
# In each experiment the animals of the control group received 1 or more injections, depending on the experimental protocol used, by the same route (I.P. or I.V.) of the same volume (0.2 ml/20 g) of the vehicle without the active principle (isotonic sodium chloride solution).
# the number and percentage of the total of the mice surviving to D60,
# the T/C×100 for the treated groups.
# T representing the mean survival time of the mice in the treated group,
# C representing the mean survival time of the mice in the control group (controls).
# [11] = system: colon carcinoma C38; assay: activity on colon carcinoma C38 implanted subcutaneously, I.P. days 2 and 9; assay type: in vivo, mouse; details: I.P.
# Method: A tumor fragment is implanted on day 0 in female B6 D2 F1 mice (19-22 g). The treatment with all of the products is administered by the I.P. route on days 2 and 9 (which is a delayed treatment). The weight of the tumors is calculated on day 20.
# [12] = DBA2, I.P. D1, D5, D9, 3×10 mg/kg
# [13] = DBA2, I.P. D1, D5, D9, 3×2.5 mg/kg
smiles,measurement,setting,value
"O=NN(CCCl)C(=O)NCCCl [BCNU, (1,3-bis-2-chloroethyl)-1-nitrosourea, reference compound]",Median wt. of the tumor D20,[1],196
same,Median wt. of the tumor D27,[1],274
same,Mice without tumor/total D20,[1],0/8
same,Mice without tumor/total D27,[1],0/6
same,T/C % D20,[1],34%
same,T/C % D27,[1],21%
same,Median weight of the tumor on day 3,[2],40 mg
same,Median weight of the tumor on day 30,[2],2 581 mg
same,T/C on day 30 (tumor weight),[2],"33,0%"
"CO[C@@H]1C[C@@H](NC(=O)N(CCCl)N=O)[C@H](O)[C@@H](CO)O1 [IC 1184, Methyl 3-[3-(2-chloroethyl) 3-nitrosoureido] 2,3-didesoxy α-D-arabinohexopyranoside]",Median survival,[3],24
same,T/C × 100 (average survival),[3],378
same,T/C × 100 (median survival),[3],265
same,relative increase in survival (T/C×100),[4],556
same,percentage of cured mice,[4],47%
same,relative increase in survival (T/C×100),[5],235
same,percentage of cured mice,[5],15%
same,Average survival ±2 σm,[6],"18 ± 1,19"
same,Median survival,[6],"17,8"
same,T/C × 100 (average survival),[6],209
same,T/C × 100 (median survival),[6],205
same,relative increase in survival (T/C×100),[7],.infin. (The sign 00 indicates that 50% at least of the mice were cured)
same,percentage of cured mice,[7],90%
"CO[C@@H]1C[C@@H](NC(=O)N(CCCl)N=O)[C@H](O)[C@@H](CNC(=O)N(CCCl)N=O)O1 [IC 1374, Methyl bis 3,6-[3-(2-chloroethyl) 3-nitrosoureido] 2,3,6-tridesoxy α-D-arabinohexopyranoside]",Average survival ±2 σm,[3],"17,1 ± 2,10"
same,Median survival,[3],"16,75"
same,T/C × 100 (average survival),[3],189
same,T/C × 100 (median survival),[3],185
same,relative increase in survival (T/C×100),[4],.infin. (The sign 00 indicates that 50% at least of the mice were cured)
same,percentage of cured mice,[4],67%
same,relative increase in survival (T/C×100),[5],246
same,percentage of cured mice,[5],10%
same,Average survival ±2 σm,[6],"12,9 ± 0,55"
same,Median survival,[6],"13,1"
same,T/C × 100 (average survival),[6],150
same,T/C × 100 (median survival),[6],151
same,CYTOTOXIC INDEX,"[8]; 1 hour contact at dose giving 20% index, read after 48 hours",71%
same,"POTENTIAL ""IN VIVO"" ACTION",[8]; active if cytotoxic index ≥40%,"+ (if the cytotoxic index was equal to or greater than 40%, the product concerned would be active ""in vivo"" in the mouse)"
same,relative increase in survival (T/C×100),[7],.infin. (The sign 00 indicates that 50% at least of the mice were cured)
same,percentage of cured mice,[7],75%
"CO[C@H]1O[C@H](C)C[C@H](NC(=O)N(CCCl)N=O)[C@H]1O [IC. 85-1590, methyl 3-[3-(2-chloroethyl) 3-nitroso-ureido] 3,4,6-trideoxyα-D-xylo-hexopyranoside]",DL0,[9],≥ 25 mg/kg
"CO[C@H]1C[C@@H](NC(=O)N(CCCl)N=O)[C@H](O)[C@@H](C)O1 [IC. 85-1625, methyl 3-[3-(2-chloroethyl) 3-nitrosoureido] 2,3,6-trideoxyβ-L-arabino-hexopyranoside]",Number of survivors at D60,[10]; [12],0/10
same,T/C,[10]; [12],190
same,DL0,[9],≥ 40 mg/kg
"CO[C@@H]1O[C@@H](C)C[C@@H](NC(=O)N(CCCl)N=O)[C@@H]1O [IC. 85-1626, methyl 3-[3-(2-chloroethyl) 3-nitrosoureido] 3,4,6-trideoxyα-L-xylo-hexopyranoside]",Number of survivors on D60,"[10]; DBA2, I.P. D1, 1×20 mg/kg",3/10
same,Number of survivors on D60,[10]; [13],0/10
same,T/C,[10]; [13],150
same,Number of survivors at D60,[10]; [12],3/10
same,T/C,[10]; [12],275
same,DL0,[9],≥ 20 mg/kg
same,LD50,"[9]; mouse, in vivo, ip",~40 mg/kg
"CO[C@H]1O[C@@H](C)C[C@@H](NC(=O)N(CCCl)N=O)[C@@H]1O [IC. 85-1627, methyl 3-[3-(2-chloroethyl) 3-nitrosoureido] 3,4,6-trideoxyβ-L-xylo-hexopyranoside]",Number of survivors on D60,"[10]; DBA2, I.P. D1, 1×20 mg/kg",3/10
same,Number of survivors on D60,[10]; [13],0/10
same,T/C,[10]; [13],141
same,Number of survivors at D60,[10]; [12],6/10
same,T/C,[10]; [12],> 600
same,DL0,[9],≥ 40 mg/kg
"CN(C)S(=O)(=O)CCNC(=O)N(CCCl)N=O [TCNU, reference compound]",Number of mice without tumor/total,[11]; 7.5 mg/kg/inj. days 2 and 9,2/10
same,T/C,[11]; 7.5 mg/kg/inj. days 2 and 9,65%
same,Weight of the tumor on day 20,[11]; 7.5 mg/kg/inj. days 2 and 9,266 mg
same,Number of mice without tumor/total,[11]; 15 mg/kg/inj. days 2 and 9,7/10
same,T/C,[11]; 15 mg/kg/inj. days 2 and 9,0%
same,Weight of the tumor on day 20,[11]; 15 mg/kg/inj. days 2 and 9,0 mg
same,dead mice (remarks),[11]; 30 mg/kg/inj. days 2 and 9,10
